Experimental data taken from PMC9929232, “On-demand male contraception via acute inhibition of soluble adenylyl cyclase” (Nature Communications, 2023).
pIC50: −log10 of the molar value.

Tests used:
[1] = TDI-11155 blood concentration during osmotic minipump delivery; type: in vivo, mouse
Experimental: (§1) At defined time points (15 min to 24 hours post-injection), 10 μl tail blood was progressively collected from the same males, mixed with 20 μl 15 mM EDTA, frozen in liquid nitrogen, and stored at −80 °C until analysis. Liver, kidney, eye, testis, caput and cauda epididymis, and seminal vesicle were collected, weighed, and homogenized in a threefold volume of 1:1 EtOH/H2O (v/v). […] Mice anesthetized with ketamine/xylazine were shaved and residual hair was removed with hair removal cream. A small incision was made with a scalpel, a hemostat was used to create a pump-size pocket under the skin, and the pump was inserted with the pump opening facing away from the incision. After the wound was closed, mice were treated with meloxicam for pain relief. For 7 or 42 days post-surgery, tail blood was collected at regular intervals.

[2] = tested on: testis, epididymis, kidneys, eyes, liver, spleen, pancreas; conditions: mouse, in vivo
Experimental: as §1
Blinded histopathological evaluation of indicated organs (testis, epididymis, kidneys, eyes, liver, spleen, and pancreas) was performed by a board-certified comparative pathologist at the WCM Laboratory of Comparative Pathology. […] Organs were fixed in 10% neutral buffered formalin followed by embedding into paraffin. Sections were cut followed by staining with hematoxylin and eosin (H&E) for microscopic evaluation.

[3] = biological target: T1, sAC-overexpressing rat 4-4 cells (Rattus norvegicus, UniProt Q9Z286); design: method as in PMID 36246105; conditions: read-out: IC50 in cellular assays; cited from earlier work
T1 construct: expressed in transfected cells
T1 sequence (Q9Z286 1-469 limits assumed): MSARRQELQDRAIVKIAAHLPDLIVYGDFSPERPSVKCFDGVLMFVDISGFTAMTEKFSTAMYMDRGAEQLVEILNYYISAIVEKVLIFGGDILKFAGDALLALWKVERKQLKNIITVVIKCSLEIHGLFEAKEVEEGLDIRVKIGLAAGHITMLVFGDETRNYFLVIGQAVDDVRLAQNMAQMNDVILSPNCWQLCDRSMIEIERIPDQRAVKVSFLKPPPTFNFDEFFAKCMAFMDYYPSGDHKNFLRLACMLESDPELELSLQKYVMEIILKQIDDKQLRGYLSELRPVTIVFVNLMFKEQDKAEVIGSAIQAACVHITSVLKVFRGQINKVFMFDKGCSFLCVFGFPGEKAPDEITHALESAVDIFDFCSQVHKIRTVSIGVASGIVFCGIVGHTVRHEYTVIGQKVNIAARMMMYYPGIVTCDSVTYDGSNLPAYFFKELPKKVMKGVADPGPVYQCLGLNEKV

Cn1cc(Cc2ccccc2OCCN2CCOCC2)c(-c2cc(Cl)nc(N)n2)n1 [TDI-11155]
delivered level relative to cellular IC50 ([1]; 7 days): 15 fold | delivered level relative to cellular IC50 ([1]; 42 days): threefold | Epididymis: Epithelial karyomegaly [2]: 2, MF | Epididymis: Exfoliated germ cells [2]: 1, MF | Eyes [2]: N | Kidneys: Lymphoplasmacytic and histiocytic infiltrates, pelvic [2]: 1, MF | Kidneys: Tubular basophilia, cortical [2]: 1, F | Kidneys: Tubular mineralization, papillary [2]: 1, F | Liver: Extramedullary hematopoiesis, random [2]: 1, MF | Liver: Lymphoplasmacytic, histiocytic, and neutrophilic hepatitis, midzonal [2]: 1, F | Liver: Lymphoplasmacytic, histiocytic, and neutrophilic hepatitis, periportal [2]: 2, F | Pancreas [2]: N | Spleen [2]: N | behavioral effects during treatment [2]: no observed behavioral effects | gross abnormalities in major organs at study termination [2]: no gross abnormalities | salt precipitation in kidneys [2]: no signs of salt precipitation | pIC50 [3]: 7.80
